Here are results for four molecules from US20250090462A1, “LIPID COMPOUND AND PREPARATION METHOD THEREFOR, AND USE THEREOF” (South China University of Technology, priority 2022, published 2025).

A short description of data set [1]: Particle size, PDI and Zeta potential of lipid compound nanoparticles (DLS). Conditions: LNP with pDNA-GFP-Luc, lipid compound:Cholesterol:DOPE:DSPE-PEG=40:48:10:2, N/P 24:1, pH=5.3. The class given is physicochemical. The procedure:
Lipid compounds 3-2-C8, 3-3-C8, 3-4-C8, 3-5-C8, 10-2-C8, 10-3-C8, 10-4-C8 and 10-5-C8 were used as nanocarrier materials to encapsulate pDNA-GFP-Luc to test the particle size (Size), polymer dispersion index (PDI) and Zeta potential of the lipid nanoparticles.
Ionizable lipids 3-2-C8, 3-3-C8, 3-4-C8, 3-5-C8, 10-2-C8, 10-3-C8, 10-4-C8, 10-5-C8 and dioleoyl phosphatidyl ethanolamine (DOPE), cholesterol, distearoylphosphatidylacetamide-polyethylene glycol (DSPE-PEG) were dissolved in anhydrous ethanol at a certain concentration, the components were uniformly mixed according to a certain molar ratio of lipid compound:Cholesterol:DOPE:DSPE-PEG=40:48:10:2, at the same time, a proper amount of pDNA-GFP-Luc was dissolved in sodium acetate buffer (the volume of sodium acetate buffer was twice the total volume of lipid mixture, pH=5.3), and the pDNA-GFP-Luc dissolved in the buffer was taken into the lipid mixture solution, and quickly mixed to assemble into lipid nanoparticles, the mixed solution was incubated at room temperature for 15 min, and the particle size and potential were tested by dynamic light scattering instrument (DLS). The nitrogen-phosphorus ratio (N/P ratio) of ionizable lipid to pDNA (24:1) was the optimal ratio, that is, the molar ratio between the protonated amino group on the ionized lipid and the phosphate group on the DNA. 2) Analysis of experimental results:
FIG. 11 is the particle size test diagram of nanoparticles prepared by lipid compounds. Table 2 is the Zeta potential test results of nanoparticles prepared by lipid compounds.
The charge is 13.0±1.56-28.7±4.36 mV, which is consistent with the characteristics of lipid nanoparticles, the smaller particle sizes can exert the high permeability and long retention effect (EPR), leading to better accumulation in the tumor sites.

Data set [2] can be described thus: In vivo RNA imaging (IVIS) of repRNA-Luc delivery after intramuscular injection. Set-up: species or system C57BL/6 mice. Conditions: for repRNA-Luc expression by IVIS: 3rd day after intramuscular injection, 150 ng repRNA-Luc, DSPC LNP; for course of expression values with time (IVIS total flux): after intramuscular injection of repRNA-Luc LNP. From the text:
Ionizable lipid compounds 3-4-C8, 3-5-C8, 10-4-C8, 10-5-C8, and 11-4-C8 were used to deliver self-amplifying RNA (Rep RNA-Luc) encoding firefly luciferase (Luc) in C57BL/6 mice. After intramuscular injection in mice, the in vivo imaging system (IVIS) was used to detect on the 3rd, 5th, and 7th day after injection.
1) The specific steps are the same with the lipid compound delivering RNA test in performance test 3, the difference in this performance test, the experimental group: ionizable lipid compounds 3-4-C8, 3-5-C8, 10-4-C8, 10-5-C8 or 11-4-C8 and distearoyl phosphatidylcholine (DSPC), cholesterol (Cholesterol), distearoyl phosphatidylacetamide-polyethylene glycol (DSPE-PEG) or blank group are dissolved in anhydrous and non-enzymatic ethanol according to a certain concentration, the use of the ratio is ionizable lipid compounds 3-4-C8, 8-4-C8, 10-4-C8 or 11-4-C8:Cholesterol:DSPC:DSPE-PEG=40:48:10:2. A proper amount of repRNA-Luc was dissolved in sodium acetate buffer (the volume of sodium acetate buffer was twice the total volume of the lipid mixture, pH=5.3), the repRNA-Luc dissolved in the buffer was added into the lipid mixture solution and quickly mixed to assemble into lipid nanoparticles, the mixed solution was incubated at room temperature for 15 min, and then dialyzed in ultrapure water for 0.5 h using a dialysis bag (14000 MW), finally, 10% glucose solution was added to the lipid nanoparticle solution to adjust the osmotic pressure for intramuscular injection (LNP containing 150 ng of repRNA-Luc in each dose). Among them, the N/P ratio of ionizable lipid to mRNA (N/P ratio) is 24:1, which is the optimal ratio, that is, the molar ratio between the protonated amino group on the ionizable lipid and the phosphate group on the DNA.
FIG. 18 is the detection map of the in vivo imaging system for lipid nanoparticles injected into mice. FIG. 19 is an injection time and total flux of the lipid compound.

In data set [1], `CCCCCCCCC(CCCCCCCC)OC(=O)NCCOC(=O)CCN(CCC(=O)OCCNC(=O)OC(CCCCCCCC)CCCCCCCC)CCN1CCCC1` [3-2-C8] yielded a Zeta potential of 13.0 ± 1.56 mV.

Regarding `CCCCCCCCC(CCCCCCCC)OC(=O)NCCCCOC(=O)CCN(CCC(=O)OCCCCNC(=O)OC(CCCCCCCC)CCCCCCCC)CCN1CCCC1` [3-4-C8], in data set [2], the “repRNA-Luc expression by IVIS” value is listed as “successfully expressed” and the “course of expression values with time (IVIS total flux)” value is on record as “increased with time”. Moreover, the Zeta potential in data set [1] is reported as 20.2 ± 3.07 mV.

In data set [1], `CCCCCCCCC(CCCCCCCC)OC(=O)NCCOC(=O)CCN(CCC(=O)OCCNC(=O)OC(CCCCCCCC)CCCCCCCC)CCN(C)C` [10-2-C8] showed a Zeta potential of 20.7 ± 2.77 mV.

Consider `CCCCCCCCC(CCCCCCCC)OC(=O)NCCCCOC(=O)CCN(CCC(=O)OCCCCNC(=O)OC(CCCCCCCC)CCCCCCCC)CCN(C)C` [10-4-C8], for which, in data set [2], the “repRNA-Luc expression by IVIS” value was “successfully expressed” and the “course of expression values with time (IVIS total flux)” value is “increased with time”. Also, in data set [1], the Zeta potential was 23.5 ± 4.87 mV.
